The values below come from patent publication US20240166690A1, “MULTI-TARGET CY[…] FOR OPIOID/NEUROPEPTIDE FF RECEPTORS, AND PREPARATION THEREFOR AND APPLICATION THEREOF” (SHANGHAI TIANCI LIFE SCIENCE DEVELOPMENT CO., LTD., priority 2021, published 2024).

For series [1] the following is noted: morphine, reference method; cited from earlier work.
The target of series [2] is T1, Delta-opioid receptor (Homo sapiens, UniProt P41143).
T1 construct: expressed in transfected cells; host or cells: HEK293
T1 sequence (P41143 whole entry): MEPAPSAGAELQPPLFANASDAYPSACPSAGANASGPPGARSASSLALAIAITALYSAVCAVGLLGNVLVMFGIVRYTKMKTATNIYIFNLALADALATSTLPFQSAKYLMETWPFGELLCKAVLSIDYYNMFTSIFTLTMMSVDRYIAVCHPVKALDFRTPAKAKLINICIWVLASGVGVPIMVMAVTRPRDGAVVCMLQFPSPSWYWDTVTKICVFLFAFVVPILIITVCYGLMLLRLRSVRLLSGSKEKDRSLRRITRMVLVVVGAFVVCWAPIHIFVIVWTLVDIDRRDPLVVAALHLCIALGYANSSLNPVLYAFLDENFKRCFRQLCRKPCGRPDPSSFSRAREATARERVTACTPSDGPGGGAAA
In words: cAMP functional experiment, Delta-opioid receptor (forskolin-induced cAMP accumulation). Format: cell-based. How it is done: (§1) The agonistic activity of the cyclopeptide molecule of the present invention against Mu-opioid receptor, Delta-opioid receptor, Kappa-opioid receptor, NPFF1 receptor and NPFF2 receptor was evaluated by detecting the regulation of the cyclopeptide molecule of the present invention on the intracellular accumulation of cyclic adenosine monophosphate (cAMP) induced by Forskolin in HEK293 cells stably expressing these five receptors. The experimental method was: the cells were seeded in 24 well plates with 120000 cells per well, and were cultured for more than 20 hours. At the beginning of the experiment, the culture medium in the culture dish was suck out, and then 500 μL of preheated serum-free medium containing 1 mM of IBMX was added, the mixture was incubated at 37° C. for 10 minutes. Then each 10 μL of the drug to be tested and 10 μM of forskolin (final concentration) were added to each well. The mixture was incubated at 37° C. for 30 minutes. After incubation, all the liquid was suck out from the culture dish, 500 μL of 0.2 N hydrochloric acid was added to each well, the mixture was incubated at room temperature for 30 minutes to promote cell lysis. After lysis was complete, NaOH was added to neutralize the hydrochloric acid solution used for lysis. Then all the liquid was suck out from the culture dish into centrifuge tubes, the liquid was centrifuged at 12000 rpm for 2 minutes. 50 μL was taken to a clean centrifuge tube, 100 μL of 60 μg/μL PKA was added, and 100 μL of TE cAMP buffer was added to the blank control group (B). Another 50 μL of 0.5 μ Ci[^3H]cAMP was added to each of the above centrifuge tubes, the mixture was quickly mixed and incubated at 4° C. for more than 2 hours. After incubation, another 100 μL of activated carbon suspension was added to each tube, the mixture was vortex agitated evenly, placed in an ice bath for 1 minute, centrifuged at 5000 rpm for 4 minutes. 200 μL of supernatant after centrifugation in each tube was suck out to a 24 well plate, with an additional 700 μL of scintillator liquid added per well, then the 24 well plate was sealed with adhesive film, placed for 3 hours, then placed on the scintillation instrument for measurement.
(§2) The inhibitory effect of cAMP was represented by the percentage (% control) of drug inhibition of intracellular cAMP accumulation induced by Forskolin, wherein % control=(cAMP content when treated with Forskolin−cAMP content when Forskolin co-treated with the test drug)/(cAMP content when treated with Forskolin−cAMP content when treated with solvent). The related % control data was represented by mean±S.E.M. The dose-effect relationship of the drug was statistically analyzed using a nonlinear regression model, and the IC50 values of the multi-target cyclopeptide molecule on inhibition of Forskolin induced intracellular cAMP accumulation were calculated using the statistical software GraphPad Prism version 5.0.
Background: cAMP levels reflect the balance of adenylyl cyclase and phosphodiesterase activity.

The target of series [3] is T2, Kappa-opioid receptor (Homo sapiens, UniProt P41145).
T2 construct: expressed in transfected cells; host or cells: HEK293
T2 sequence (P41145 whole entry): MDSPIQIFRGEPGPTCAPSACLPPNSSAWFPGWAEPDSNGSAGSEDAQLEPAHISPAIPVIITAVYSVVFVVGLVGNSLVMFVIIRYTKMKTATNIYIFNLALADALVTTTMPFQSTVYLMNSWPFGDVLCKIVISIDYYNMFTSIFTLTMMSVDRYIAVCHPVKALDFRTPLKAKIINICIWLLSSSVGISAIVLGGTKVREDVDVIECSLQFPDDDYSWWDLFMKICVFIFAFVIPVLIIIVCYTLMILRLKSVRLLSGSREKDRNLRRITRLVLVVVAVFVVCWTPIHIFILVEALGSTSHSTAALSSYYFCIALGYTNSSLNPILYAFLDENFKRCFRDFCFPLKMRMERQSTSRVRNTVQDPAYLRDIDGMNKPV
In words: cAMP functional experiment, Kappa-opioid receptor (forskolin-induced cAMP accumulation). Format: cell-based. As to the method:
as §1, §2

The test system of series [4] is Kunming male mice. The experiment in a line: Photothermal tail flick experiment, oral administration. The note with it: tail flick; for Maximum analgesic time: oral administration at the maximum analgesic dose; for analgesic duration: oral administration. It counts as in vivo. How it is done:
(§3) Two administration methods were used: peripheral subcutaneous administration and oral administration. Subsequently, the analgesic activity of the drug was studied using an acute pain model of photothermal tail flick in mice.
1 mL sterile syringe was used for oral administration (p.o.), the pinhead was replaced with a mouse gastric lavage needle, and […] of the drug was orally administered. The skin on the neck and back of the mouse was grasped with the left hand with the abdomen facing upwards. Noted that the mouse's entire body was fixed to vertical, which was beneficial for oral gavage. A gastric lavage needle (No. 12 needle and 1 mL syringe) was held in the right hand and was inserted to the esophagus along the upper jaw which is pressed the tongue tightly from the corner of the mouse's mouth. Gastric lavage fluid can be injected when the needle inserted 2.5 cm. The inserting length of the needle should be determined through practice in advance, as there is a sense of falling into a hole after the needle is inserted. If the injection position was appropriate, it should be very smooth. […] This can cause immediate death of the mouse after gavage.
(§4) The photothermal tail flick experiment is based on the experimental method summarized by D'Amour and Smith to optimize the experimental parameters. The experiment selected Kunming male mice with body weigh 21±2 g, and ambient temperature controlled at 22±2° C. The experimental mice were allowed to drink water freely and were moved from the breeding room to the experimental area for adaptation for 30 minutes before starting the experiment. Then the mice were grab with the right hand and the tail hang freely. Then the mice's tail were placed on a radiation light source, 2-3 mm away from the mice tail. The intensity of radiation heat was adjusted to the tail flick time of mice being 3-5 s, which is the basic pain threshold of photothermal tail flick. The irradiation time of the mice tail should not exceed 10 s to prevent scalding of the mice tail, which was the maximum latency for photothermal tail flick. After administration, time points of 10, 20, 30, 45, 60, 90, 120, 180, 240, 300, 360, and 420 minutes were selected to measure the tail flick latency of mice after administration.
(§5) The analgesic effect of drugs was generally evaluated using the maximum analgesic effect MPE (%), MPE (%)=100×[(pain threshold after administration−basic pain threshold)/(10 seconds−basic pain threshold)]. 50% effective dose (ED50) refers to the corresponding drug dose that causes a 50% effect. ED50 and 95% confidence interval were calculated using MPE (%) and the drug concentration that achieves the maximum analgesic effect MPE (%) by the statistical software GraphPad Prism 5.0. The difference in analgesic effects was statistically analyzed using one-way ANOVA (Dunnett test), *P<0.05, **P<0.01, and ***P<0.001 indicated significance of the difference between the group with only drug injected and the saline group.

In series [5] the target is T3, NPFF2 receptor (Homo sapiens, UniProt Q9Y5X5).
T3 construct: expressed in transfected cells; host or cells: HEK293
T3 sequence (Q9Y5X5 whole entry): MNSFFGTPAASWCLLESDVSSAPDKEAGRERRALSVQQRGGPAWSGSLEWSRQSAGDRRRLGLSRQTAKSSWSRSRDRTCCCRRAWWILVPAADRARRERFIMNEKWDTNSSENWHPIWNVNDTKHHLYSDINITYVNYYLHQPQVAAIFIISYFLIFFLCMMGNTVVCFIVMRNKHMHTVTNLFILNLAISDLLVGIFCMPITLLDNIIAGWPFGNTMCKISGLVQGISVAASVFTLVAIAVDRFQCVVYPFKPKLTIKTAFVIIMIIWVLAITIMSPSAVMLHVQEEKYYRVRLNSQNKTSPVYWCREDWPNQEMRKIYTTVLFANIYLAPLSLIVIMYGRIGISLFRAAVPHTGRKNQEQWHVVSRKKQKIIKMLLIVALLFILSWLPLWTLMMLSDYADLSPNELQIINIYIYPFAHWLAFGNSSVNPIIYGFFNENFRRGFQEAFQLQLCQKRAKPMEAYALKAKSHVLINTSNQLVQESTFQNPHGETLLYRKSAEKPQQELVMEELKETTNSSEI
The experiment in a line: cAMP functional experiment, NPFF2 receptor (forskolin-induced cAMP accumulation). Format: cell-based. How it is done:
as §1, §2

Series [6] has as its target T4, NPFF1 receptor (Homo sapiens, UniProt Q9GZQ6).
T4 construct: expressed in transfected cells; host or cells: HEK293
The experiment in a line: cAMP functional experiment, NPFF1 receptor (forskolin-induced cAMP accumulation). Format: cell-based. As to the method: as §1, §2

In series [7] the test system is Kunming male mice. In words: Photothermal tail flick experiment, subcutaneous injection. It counts as in vivo. The note with it: photothermal tail flick. As to the method:
as §3
Subcutaneous administration on the back was chosen for subcutaneous administration (s.c.). A sterile 1 mL syringe was used and the drug with the volume of 0.1 mL/10 g was injected for administration. The back skin was grasped with the right hand, the needle was tilted in, and the drug was injected subcutaneously into the mouse's back. After the needle was inserted, shook it left and right, and observe to confirm that the needle had indeed entered the subcutaneous area to prevent the needle from puncturing the skin and leaking the drug.
as §4, §5

In series [8] the target is T5, Mu-opioid receptor (Homo sapiens, UniProt P35372).
T5 construct: expressed in transfected cells; host or cells: HEK293
T5 sequence (P35372 whole entry): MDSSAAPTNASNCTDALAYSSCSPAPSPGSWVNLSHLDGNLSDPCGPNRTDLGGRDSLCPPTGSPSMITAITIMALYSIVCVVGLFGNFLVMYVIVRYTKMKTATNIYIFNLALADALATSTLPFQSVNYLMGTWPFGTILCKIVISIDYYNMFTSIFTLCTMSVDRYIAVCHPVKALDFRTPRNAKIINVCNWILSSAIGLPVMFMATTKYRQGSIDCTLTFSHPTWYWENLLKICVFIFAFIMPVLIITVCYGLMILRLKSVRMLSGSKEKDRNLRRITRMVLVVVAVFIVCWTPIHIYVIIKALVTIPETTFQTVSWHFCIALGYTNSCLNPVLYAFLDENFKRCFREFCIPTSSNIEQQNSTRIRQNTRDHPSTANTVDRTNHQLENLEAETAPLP
In words: cAMP functional experiment, Mu-opioid receptor (forskolin-induced cAMP accumulation). It counts as cell-based. How it is done:
as §1, §2

Bridge positions count the residues as written; N and C are the ends. Square brackets hold non-standard residues; d marks the D form. Peptide text beside a SMILES is read from it. NMeF = CN[C@@H](Cc1ccccc1)C(=O)O; Cha = N[C@@H](CC1CCCCC1)C(=O)O; dOrn = NCCC[C@@H](N)C(=O)O; dDap = NC[C@@H](N)C(=O)O; Aib = CC(C)(N)C(=O)O; βAla = NCCC(=O)O

T4 sequence (Q9GZQ6 whole entry): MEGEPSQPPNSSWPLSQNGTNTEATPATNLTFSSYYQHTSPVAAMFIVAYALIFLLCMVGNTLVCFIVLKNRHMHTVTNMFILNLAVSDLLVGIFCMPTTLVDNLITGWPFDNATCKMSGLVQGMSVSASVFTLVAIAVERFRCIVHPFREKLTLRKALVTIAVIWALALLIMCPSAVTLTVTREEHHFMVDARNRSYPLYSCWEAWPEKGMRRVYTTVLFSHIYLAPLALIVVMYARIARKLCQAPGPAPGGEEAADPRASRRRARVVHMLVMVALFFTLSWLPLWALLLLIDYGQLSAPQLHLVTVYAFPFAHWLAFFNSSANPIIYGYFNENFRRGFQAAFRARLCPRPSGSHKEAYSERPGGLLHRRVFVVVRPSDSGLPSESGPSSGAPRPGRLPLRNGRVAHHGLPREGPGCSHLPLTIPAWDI

`CN1CC[C@]23c4c5ccc(O)c4O[C@H]2[C@@H](O)C=C[C@H]3[C@H]1C5` [morphine]: the “analgesic ED50” value in series [1] is on record as 1.68 mg/kg.

As a reminder, the melting point is the temperature, or range, at which the solid turns liquid. Take `CN1C(=O)CNC(=O)[C@H](NC(=O)[C@@H](N)Cc2ccc(O)cc2)CCC(=O)NCCCC[C@@H](C(=O)N2CCC[C@H]2C(=O)N[C@@H](CCC(N)=O)C(=O)N[C@@H](CCCNC(=N)N)C(=O)N[C@@H](Cc2ccccc2)C(N)=O)NC(=O)[C@@H]1Cc1ccccc1` [Compound 7, Tyr-c^[2,5][D-Glu-Gly-NMe-Phe-Lys]-Pro-Gln-Arg-Phe-NH2] (H-Y[dE]G[NMeF]KPQRF-NH2; lactam 2-5): the melting point fell in the range of 182 to 184 °C.

`CN1C(=O)CNC(=O)[C@H](NC(=O)[C@@H](N)Cc2ccc(O)cc2)CCCCNC(=O)C[C@@H](C(=O)N2CCC[C@H]2C(=O)NCCC(=O)N[C@@H](CCCNC(=N)N)C(=O)N[C@@H](CC2CCCCC2)C(N)=O)NC(=O)[C@@H]1Cc1ccccc1` [Compound 13, Tyr-c[D-Lys-Gly-NMe-Phe-Asp]-Pro-β-Ala-Arg-Cha-NH2] (H-Y[dK]G[NMeF]DP[βAla]R[Cha]-NH2; lactam 2-5) came in with a melting point of 175 to 177 °C.

What is called IC50 is the concentration that gives 50% inhibition. High values mean a need for much substance, low ones inhibition by little substance. As for `CN1C(=O)CNC(=O)[C@H](NC(=O)[C@@H](N)Cc2ccc(O)cc2)CNC(=O)C[C@@H](C(=O)N2CCC[C@H]2C(=O)N[C@@H](CCC(N)=O)C(=O)N[C@@H](CCCNC(=N)N)C(=O)N[C@@H](Cc2ccccc2)C(N)=O)NC(=O)[C@@H]1Cc1ccccc1` [Compound 10, Tyr-c^[2,5][D-Dap-Gly-NMe-Phe-Asp]-Pro-Gln-Arg-Phe-NH2] (H-Y[dDap]G[NMeF]DPQRF-NH2; lactam 2-5), the IC50 was 374 nM in series [2]; 136 nM in series [3]; 349 nM in series [5]; 90.1 nM in series [6]; 238 nM in series [8]. The Maximum analgesic time in series [4] was determined as 30 min. The same molecule showed an analgesic duration in series [4] of 240 min. For the same molecule, the “ED50 value (95% confidence interval), analgesic activity” value (from here on “ED50 value (95% confidence interval)”) in [7] was 15.0 (13.6 to 16.5) μg/kg.

As for `CN1C(=O)CNC(=O)[C@H](NC(=O)[C@@H](N)Cc2ccc(O)cc2)CCCNC(=O)C[C@@H](C(=O)N2CCC[C@H]2C(=O)N[C@@H](CCC(N)=O)C(=O)N[C@@H](CCCNC(=N)N)C(=O)N[C@@H](Cc2ccccc2)C(N)=O)NC(=O)[C@@H]1Cc1ccccc1` [Compound 8, Tyr-c^[2,5][D-Orn-Gly-NMe-Phe-Asp]-Pro-Gln-Arg-Phe-NH2] (H-Y[dOrn]G[NMeF]DPQRF-NH2; lactam 2-5), the half-inhibitory concentration (IC50) in series [2] came to 659 nM; in series [3], 139 nM; in [5], 133 nM; in [6] it was 439 nM; in series [8], 168 nM. For the same molecule, the Maximum analgesic time in [4] was 30 min. The molecule also gave an analgesic duration in series [4] of 240 min. Moreover, the “ED50 value (95% confidence interval)” value in series [7] is recorded as 15.0 (13.8 to 16.4) μg/kg.

`CN1C(=O)CNC(=O)[C@H](NC(=O)[C@@H](N)Cc2ccc(O)cc2)CCCCNC(=O)CC[C@@H](C(=O)N2CCC[C@H]2C(=O)N[C@@H](CCC(N)=O)C(=O)N[C@@H](CCCNC(=N)N)C(=O)N[C@@H](Cc2ccccc2)C(N)=O)NC(=O)[C@@H]1Cc1ccccc1` [Compound 2, Tyr-c^[2,5][D-Lys-Gly-NMe-Phe-Glu]-Pro-Gln-Arg-Phe-NH2] (H-Y[dK]G[NMeF]EPQRF-NH2; lactam 2-5): the 50% inhibitory concentration (IC50) in [2] was found to be 36.4 nM; in series [3] it was 29.5 nM; in [5] it was 83.1 nM; in series [6] it was 189 nM; in [8] it was 48.8 nM. Further, in series [4], the Maximum analgesic time is 30 min. The molecule also had an analgesic duration in [4] of 240 min. Further, the “ED50 value (95% confidence interval)” value in series [7] is on record as 17.9 (15.3 to 20.9) μg/kg.

In turn, `CN1C(=O)CNC(=O)[C@H](NC(=O)[C@@H](N)Cc2ccc(O)cc2)CCCCNC(=O)C[C@@H](C(=O)N2CCC[C@H]2C(=O)NC(C)(C)C(=O)N[C@@H](CCCNC(=N)N)C(=O)N[C@@H](CC2CCCCC2)C(N)=O)NC(=O)[C@@H]1Cc1ccccc1` [Compound 14, Tyr-c^[2,5][D-Lys-Gly-NMe-Phe-Asp]-Pro-Aib-Arg-Cha-NH2] (H-Y[dK]G[NMeF]DP[Aib]R[Cha]-NH2; lactam 2-5) registered a melting point of 196 to 198 °C.
